Laboratory results published in patent US11351129B2, “Systems and methods for treating vitiligo” (Transdermal Biotechnology, Inc., priority 2016, dated 2022).

System: vitiligo depigmented area of skin
Assay: Two month study of topically applied sodium pyruvate in subjects with vitiligo (photographs, DSMII Colorimeter erythema and melanin, clinical evaluations)
Assay type: in vivo, human
Conditions: for average erythema colorimetric measurement: DSMII Colorimeter, 0.2% phase
Excerpt: Subjects were 18 years of age and older. A medical history form and this consent statement were provided to them to read, review, and complete. They had no other systemic or dermatological disease present that would interfere with the integrity of this study. Subjects were in good health as determined by the medical history. After all their questions were answered and they decided to participate in the study they were asked to sign the informed consent statement. 5 subjects were studied as follows:
Subjects were dispensed two (2) tubes of test products. One was labeled HNC 180-100-A (0.05%) and the other labeled as HNC 180-100-B (0.1%). Subjects were instructed to use these products sparingly and make applications twice daily, morning, and evening. Applications were made only to the areas designated for treatment.
The sodium pyruvate dosage was increased to 0.2% after the initial eight week study was completed. Subjects were dispensed HNC-180-12 for this phase.
This was a two (2) month study that involved five (5) subjects. Test sessions lasted approximately ½ hour per visit. There were […] scheduled visits. The first was on Day 1 (Baseline), and then at 1, 2, 4, 6 and 8 weeks.
At the end of the 8 weeks all subjects were invited to continue for further study. Four of the subjects elected to continue.
Prior to any study procedures being performed subjects were given an informed consent statement to read, review, and sign. A body map assessment of the vitiligo depigmented area was made and the target areas of treatment were photographed for the baseline record. Colorimetric measurements of the skin were done employing a DSMII Colorimeter. This instrument produced a read-out of erythema and melanin based on the light absorption characteristics of human skin. Subjects reported to the clinic for additional photographs, colorimeter measurements, and clinical evaluations at each scheduled visit.

average erythema colorimetric measurement (week 12): 15.80 arbitrary units
average erythema colorimetric measurement (week 16): 15.71 arbitrary units
Compound: CC(=O)C(=O)[O-].[Na+] [sodium pyruvate]
increase in pigment in vitiliginous areas, subjects showing it (5 subjects with vitiligo, topical, twice daily, 0.05% and 0.1% for 8 weeks, then 0.2%): 4 out of the 5
irritation (concentration of sodium pyruvate increased to 0.2% after 8 weeks, topical): increased irritation
appearance of vitiligo (topically applied): effective in reducing the appearance of vitiligo
